Assay results reported in patent EP4129319A1, “PORE-FORMING ANTIMICROBIAL PEPTIDES” (priority 2021, dated 2023).
Ends that are not written are not given here.

Assay: Calcein leakage assay
Type: biochemical
Conditions: calcein leakage, POPC:POPG (1:1 mol/mol) LUVs; for Extent of leakage (in percentage) at increasing peptide-to-lipid ratio (mol/mol) 1:10: peptide-to-lipid ratio 1:10 (mol/mol); for Extent of leakage (in percentage) at increasing peptide-to-lipid ratio (mol/mol) 1:20: peptide-to-lipid ratio 1:20 (mol/mol); for Extent of leakage (in percentage) at increasing peptide-to-lipid ratio (mol/mol) 1:50: peptide-to-lipid ratio 1:50 (mol/mol); for Extent of leakage (in percentage) at increasing peptide-to-lipid ratio (mol/mol) 1:100: peptide-to-lipid ratio 1:100 (mol/mol)
Experimental: Chemicals. […] (Prague, Czech Republic), and Caslo ApS (Kongens Lyngby, Denmark). […] The bacterial stock was stored at -80°C.
Calcein leakage assay. Pore-forming activity of the peptides was tested by their ability to leak the self-quenching fluorescent dye calcein entrapped within POPC:POPG (1:1 mol/mol) large unilamellar vesicles (LUVs). After mixing DiD to the lipid mixture (in the ratio 1:500 mol/mol), a thin lipid film was created by evaporating of the chloroform, traces of which were removed by desiccating overnight. The lipid film was then dissolved in calcein buffer, followed by vigorous vortexing. The lipid suspension was subsequently subjected to 10 freeze-thaw cycles. To obtain uniform LUVs, the sample was passed 50 times back and forth through an extruder stacked with 100 nm pore size polycarbonate membrane filter. Afterwards, the untrapped calcein was removed on a HiTrap Desalting Column (with Sephadex G-25 Superfine resin) by washing with PBS buffer. The concentration of the lipid suspension was then adjusted to 0.02 mM. The concentration of the peptide solution was 0.1 mM. The inventors monitored the peptide-induced release of calcein from LUVs by the increase in fluorescence intensity after adding increasing amounts of peptides to the LUVs under constant stirring at 25 °C. The investigated range of peptide/lipid molecular ratio was from 1:100 to 1:10. The excitation and emission wavelengths were set to 495 nm and 520 nm, respectively. Maximum fluorescence intensity was obtained by disrupting all the vesicles in the end by adding 10% Triton X-100. Experiments were performed in triplicates with independently prepared lipid vesicles.

NQRRLRRILRRLFQFINQLIDDLDDIRRQN [RDFC21]
Aggregated peptides and no leakage: Extent of leakage (in percentage) at increasing peptide-to-lipid ratio (mol/mol) 1:10 | Extent of leakage (in percentage) at increasing peptide-to-lipid ratio (mol/mol) 1:20 | Extent of leakage (in percentage) at increasing peptide-to-lipid ratio (mol/mol) 1:50 | Extent of leakage (in percentage) at increasing peptide-to-lipid ratio (mol/mol) 1:100

NQRRLQNILRRLFQFIDQLINDLQNIRRQN [RDFA5]
Aggregated peptides and no leakage: Extent of leakage (in percentage) at increasing peptide-to-lipid ratio (mol/mol) 1:10 | Extent of leakage (in percentage) at increasing peptide-to-lipid ratio (mol/mol) 1:20 | Extent of leakage (in percentage) at increasing peptide-to-lipid ratio (mol/mol) 1:50 | Extent of leakage (in percentage) at increasing peptide-to-lipid ratio (mol/mol) 1:100

NQRRLRRILNQLWQWINQLDNQLQDIRRQN [RDWA2]
Aggregated peptides and no leakage: Extent of leakage (in percentage) at increasing peptide-to-lipid ratio (mol/mol) 1:10 | Extent of leakage (in percentage) at increasing peptide-to-lipid ratio (mol/mol) 1:20 | Extent of leakage (in percentage) at increasing peptide-to-lipid ratio (mol/mol) 1:50 | Extent of leakage (in percentage) at increasing peptide-to-lipid ratio (mol/mol) 1:100

NQRRLQNILRRLFQFINQLIDDLQNIRRQN [RDFA7]
Aggregated peptides and no leakage: Extent of leakage (in percentage) at increasing peptide-to-lipid ratio (mol/mol) 1:10 | Extent of leakage (in percentage) at increasing peptide-to-lipid ratio (mol/mol) 1:20 | Extent of leakage (in percentage) at increasing peptide-to-lipid ratio (mol/mol) 1:50 | Extent of leakage (in percentage) at increasing peptide-to-lipid ratio (mol/mol) 1:100

NQRRLRRILRRLFQFIDQLDNDLQDIRRQN [RDFC16]
Aggregated peptides and no leakage: Extent of leakage (in percentage) at increasing peptide-to-lipid ratio (mol/mol) 1:10 | Extent of leakage (in percentage) at increasing peptide-to-lipid ratio (mol/mol) 1:20 | Extent of leakage (in percentage) at increasing peptide-to-lipid ratio (mol/mol) 1:50 | Extent of leakage (in percentage) at increasing peptide-to-lipid ratio (mol/mol) 1:100

NQRRLRRILNQLFQFINQLDNQLQDIRQNR [RDFA2i]
Aggregated peptides and no leakage: Extent of leakage (in percentage) at increasing peptide-to-lipid ratio (mol/mol) 1:10 | Extent of leakage (in percentage) at increasing peptide-to-lipid ratio (mol/mol) 1:20 | Extent of leakage (in percentage) at increasing peptide-to-lipid ratio (mol/mol) 1:50 | Extent of leakage (in percentage) at increasing peptide-to-lipid ratio (mol/mol) 1:100

NQRRLRRILRRLWQWINQLIDDLDDIRRQN [RDWC21]
Aggregated peptides and no leakage: Extent of leakage (in percentage) at increasing peptide-to-lipid ratio (mol/mol) 1:10 | Extent of leakage (in percentage) at increasing peptide-to-lipid ratio (mol/mol) 1:20 | Extent of leakage (in percentage) at increasing peptide-to-lipid ratio (mol/mol) 1:50 | Extent of leakage (in percentage) at increasing peptide-to-lipid ratio (mol/mol) 1:100
